From patent publication US20200268762A1, “7-SUBSTITUTED SULFONIMIDOYLPURINONE COMPOUNDS AND DERIVATIVES FOR THE TREATMENT AND PROPHYLAXIS OF LIVER CANCER” (Hoffmann-La Roche Inc., priority 2019, published 2020)
pEC50: −log10 of the molar value. In brackets after ≈: the same amount, converted by molar mass. Read-outs that look alike come from different tables or passages of the source. Blank lines part the entries; values can stand above or below the compound they belong to.

Tests used:
LYSA solubility study = format: physicochemical; settings: for LYSA of Active Forms: 0.05 M phosphate buffer pH 6.5; for solubility thermodynamic: 0.05 M phosphate buffer, pH 6.5, aqueous buffer, thermodynamic from solid
Description: LYSA study is used to determine the aqueous solubility of tested compounds. Samples were prepared in duplicate from 10 mM DMSO stock solution. After evaporation of DMSO with a centrifugal vacuum evaporator, the compounds were dissolved in 0.05 M phosphate buffer (pH 6.5), stirred for one hour and shaken for two hours. After one night, the solutions were filtered using a microtiter filter plate. Then the filtrate and its 1/10 dilution were analyzed by HPLC-UV. […] The results were in μg/mL. In case the percentage of sample measured in solution after evaporation divided by the calculated maximum of sample amount was bigger than 80%, the solubility was reported as bigger than this value.

[1] = tested on: cell lines originating from hepatocellular carcinoma and cholangiocarcinoma; assay: Direct treatment of tumor cell lines, cell counts by nuclei imaging; format: cell-based; settings: 27 μM down to 270 pM, 72, 120 and 148 hours, relative to DMSO control
Description: Cell lines derived from hepatocellular carcinoma and cholangiocarcinoma (EGI1 and OZ) were maintained and tested in the following media: Huh7 and EGI1 were cultured in DMEM 4.5 g/L glucose (Gibco, Cat #31966-021), 10% FCS (GIBCO, Cat #10500-064 Lot 07G3690K), 2 mM L-glutamine (Thermo Fischer, Cat #25030081), 1 mM sodium pyruvate (GIBCO Cat #11360-039). Hep3B and HepG2 were cultivated in Eagles MEM+Earle's BSS (PAN, Cat # P04-08510), 10% FCS, 2 mM L-glutamine, 0.1 mM NEAA (PAN Cat # P08-32100) and 1 mM sodium pyruvate. JHH1, JHH5, JHH6 and OZ were cultivated in Williams'E (PAN Cat # P04-29050), 10% FCS and 2 mM L-glutamine. JHH2 was cultivated using Williams'E, 10% FCS and 2 mM L-glutamine. HLE was cultivated in DMEM 4.5 g/L glucose, 10% FCS and 2 mM L-glutamine. HLF was cultivated in DMEM 4.5 g/L glucose, 5% FCS, 0.1 mM NEAA and 2 mM L-glutamine. JHH4 was cultivated in Eagles MEM+Earle's BSS, 10% FCS and 2 mM L-glutamine. SkHep1 was cultivated in Eagles MEM+Earle's BSS, 10% FCS, 2 mM L-glutamine, 0.1 mM NEAA and 1 mM sodium pyruvate. SNU449 was cultivated using RPMI 1640 (PAN Cat # P04-18047) 10% FCS and 2 mM L-glutamine. […]
Tumor cell counts were determined using Perkin Elmer Operetta Imaging System and Harmony Software by counting nuclei stained for 20 minutes in full media using Hoechst33342 dye (2 μg/ml, Sigma Cat # B2261). […]

human TLR7 = molecular target: T1, human TLR7 (Homo sapiens, UniProt Q9NYK1); assay: HEK293-Blue-hTLR-7 cells assay (SEAP reporter); format: cell-based; settings: for pEC50: SEAP reporter, 20 hrs
T1 sequence (Q9NYK1 27-1049): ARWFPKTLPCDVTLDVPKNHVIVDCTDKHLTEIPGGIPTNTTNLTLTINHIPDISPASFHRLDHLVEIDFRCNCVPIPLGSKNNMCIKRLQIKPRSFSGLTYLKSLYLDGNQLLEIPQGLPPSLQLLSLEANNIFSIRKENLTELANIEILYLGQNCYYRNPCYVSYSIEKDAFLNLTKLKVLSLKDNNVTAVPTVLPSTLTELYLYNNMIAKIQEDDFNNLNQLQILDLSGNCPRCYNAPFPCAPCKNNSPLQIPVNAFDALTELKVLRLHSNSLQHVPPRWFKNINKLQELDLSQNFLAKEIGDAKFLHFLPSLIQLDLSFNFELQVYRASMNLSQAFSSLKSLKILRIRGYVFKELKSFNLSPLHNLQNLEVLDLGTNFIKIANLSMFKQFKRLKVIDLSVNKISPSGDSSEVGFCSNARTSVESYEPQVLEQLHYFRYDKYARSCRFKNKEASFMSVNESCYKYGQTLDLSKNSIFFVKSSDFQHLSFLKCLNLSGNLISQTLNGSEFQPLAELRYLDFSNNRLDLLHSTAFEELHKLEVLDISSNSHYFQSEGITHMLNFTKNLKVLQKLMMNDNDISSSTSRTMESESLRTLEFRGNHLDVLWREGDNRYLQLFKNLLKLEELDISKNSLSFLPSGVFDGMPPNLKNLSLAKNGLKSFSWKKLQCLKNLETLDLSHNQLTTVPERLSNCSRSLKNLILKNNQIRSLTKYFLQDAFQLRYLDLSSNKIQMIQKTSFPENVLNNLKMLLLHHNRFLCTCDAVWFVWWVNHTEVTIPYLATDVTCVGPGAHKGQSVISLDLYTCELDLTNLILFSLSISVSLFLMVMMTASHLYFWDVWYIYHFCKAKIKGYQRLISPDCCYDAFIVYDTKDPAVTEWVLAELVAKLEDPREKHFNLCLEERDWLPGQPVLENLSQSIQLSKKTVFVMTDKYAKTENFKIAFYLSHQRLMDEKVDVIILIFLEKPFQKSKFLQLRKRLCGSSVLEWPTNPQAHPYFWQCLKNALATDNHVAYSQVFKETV
Text: HEK293-Blue-hTLR-7 cells assay: A stable HEK293-Blue-hTLR-7 cell line was purchased from InvivoGen (Cat. #: hkb-htlr7, San Diego, Calif., USA). These cells were designed for studying the stimulation of human TLR7 by monitoring the activation of NF-κB. A SEAP (secreted embryonic alkaline phosphatase) reporter gene was placed under the control of the IFN-β minimal promoter fused to five NF-κB and AP-1-binding sites. The SEAP was induced by activating NF-κB and AP-1 via stimulating HEK-Blue hTLR7 cells with TLR7 ligands. Therefore the reporter expression was regulated by the NF-κB promoter upon stimulation of human TLR7 for 20 hrs. The cell culture supernatant SEAP reporter activity was determined using QUANTI-Blue™ kit (Cat. #: rep-qbl, Invivogen, San Diego, Ca, USA) at a wavelength of 640 nm, a detection medium that turns purple or blue in the presence of alkaline phosphatase. […] Then 20 μL of the supernatant from each well was incubated with 180 μL Quanti-blue substrate solution at 37° C. for 2 hrs and the absorbance was read at 620-655 nm using a spectrophotometer. The signalling pathway that TLR7 activation leads to downstream NF-κB activation has been widely accepted, and therefore similar reporter assay was also widely used for evaluating TLR7 agonist (Tsuneyasu Kaisho and Takashi Tanaka, Trends in Immunology, Volume 29, Issue 7, July 2008, […]; Hiroaki Hemmi et al, Nature Immunology 3, 196-200 (2002)). The Compounds and Examples of the present invention were tested in HEK293-hTLR-7 assay for their TLR7 agonism activity as described herein and results are listed in Table 1. […] The calculated ratio of EC50(prodrug)/EC50(active form) were within the range from 32 to about 7600.

[2] = tested on: iAST mouse model of hepatocellular carcinoma; assay: iAST mouse model of hepatocellular carcinoma, tumor burden; settings: iAST mice, Sorafenib 90 mg/kg daily
Description: Per group n=10 were analyzed by One-way ANOVA and Tukey correction shown as individual dots with means±SEM using GraphPad Prism software version 6.

[3] = tested on: immune cell infiltrate in iAST tumor; assay: Leukocyte infiltrate of iAST tumors by flow cytometry; format: in vivo, mouse; settings: day 12 after treatment start
Description: Tumors from iAST mice were treated as described in FIG. 1. […] For flow cytometry, tumors were excised and single cell suspensions obtained by mechanical processing and enzymatic digestion (DNAse 0.01%, Collagenase IV 1 mg/ml). Staining procedures started with Fc receptor blocking using 2.4G2 antibody clone (1:200 dilution, BD Bioscience), and the following antibodies (clones) were used to analyzed leukocyte infiltrate: CD45-FITC (30-F11, BioLegend) and CD11b-BUV737 (M1/70, BD Bioscience). Samples were acquired using a LSR Fortessa machine (BD Bioscience) and analyzed by FlowJo version 10 (Treestar).

[4] = corresponding active form, read-out: HEK293-hTLR-7 EC50 (Active form)

Compound: CCCS(=N)(=O)c1nc(N)c2[nH]c(=O)n(Cc3ccccc3)c2n1 (single isomer, unassigned) [Compound 1e-A, 6-amino-9-benzyl-2-(propylsulfonimidoyl)-7H-purin-8-one]
LYSA of Active Forms (LYSA solubility study): 56 µg/mL

Compound: CCCS(=N)(=O)c1nc(N)c2[nH]c(=O)n(Cc3ccccc3)c2n1 (single isomer, unassigned) [Compound 1e-B, 6-amino-9-benzyl-2-(propylsulfonimidoyl)-7H-purin-8-one]
solubility thermodynamic (LYSA solubility study; read-out: LYSA of Active Forms): 50 µg/mL (≈ 144 µM)

Compound: CCCS(=N)(=O)c1nc(N)c2[nH]c(=O)n(Cc3ccc(C)cc3)c2n1 (single isomer, unassigned) [Compound 36g-A, 6-Amino-2-(propylsulfonimidoyl)-9-(p-tolylmethyl)-7H-purin-8-one]
solubility thermodynamic (LYSA solubility study; read-out: LYSA of Active Forms): 6 µg/mL (≈ 16.6 µM)

Compound: CCCS(=N)(=O)c1nc(N)c2[nH]c(=O)n(Cc3ccc(C)cc3)c2n1 (single isomer, unassigned) [Compound 36g-B, 6-Amino-2-(propylsulfonimidoyl)-9-(p-tolylmethyl)-7H-purin-8-one]
LYSA of Active Forms (LYSA solubility study): 11 µg/mL

Compound: CC[S@@](=N)(=O)c1nc(N)c2[nH]c(=O)n(Cc3ccc(Cl)cc3)c2n1 (single isomer, unassigned) [Compound 41c-B, 6-amino-9-[(4-chlorophenyl)methyl]-2-(ethylsulfonimidoyl)-7H-purin-8-one]
tumor cell proliferation upon direct treatment [1]: None of the cell lines tested showed a significant increase in proliferation
tumor cell proliferation upon direct treatment ([1]; listed as compound 41c-B): does not induce enhanced tumor cell proliferation

Compound: CC[S@@](=N)(=O)c1nc(N)c2[nH]c(=O)n(Cc3ccc(Br)cc3)c2n1 (single isomer, unassigned) [Compound 47e-A, 6-Amino-9-[(4-bromophenyl)methyl]-2-(ethylsulfonimidoyl)-7H-purin-8-one]
pEC50 (human TLR7; [4]): 7.68

Compound: CNC(=O)c1cc(Oc2ccc(NC(=O)Nc3ccc(Cl)c(C(F)(F)F)c3)cc2)ccn1 [Sorafenib, 4-{4-[3-(4-Chlor-3-trifluormethylphenyl)ureido]phenoxy}pyridin-2-carbonsäuremethylamid]
efficacy in monotherapy (total liver and tumor weights) [2]: highly effective
Examination of the liver for superficial tumor nodules (tumor nodule free) ([2]; day 12 after treatment start, 41-A 10 mg/kg once a week oral): 0/10 tumor nodule free
overall lymphoid and myeloid composition of the tumors [3]: changes were clearly driven by Sorafenib

Second part, the compound after the results:

pEC50 (human TLR7; [4]): 7.60
Compound: CC[S@@](=N)(=O)c1nc(N)c2[nH]c(=O)n(Cc3ccc(Br)cc3)c2n1 (single isomer, unassigned) [Compound 47e-B, 6-Amino-9-[(4-bromophenyl)methyl]-2-(ethylsulfonimidoyl)-7H-purin-8-one]

pEC50 (human TLR7; prodrug, read-out: HEK293-hTLR-7 EC50 (Prodrug)): 4.96
solubility thermodynamic (LYSA solubility study; read-out: LYSA of Prodrugs): 154 µg/mL (≈ 302 µM)
Compound: CCCN(C)C(=O)n1c(=O)n(Cc2ccc(Br)cc2)c2nc([S@](=N)(=O)CC)nc(N)c21 (single isomer, unassigned) [Example 47-A]

Ratio (EC50(prodrug)/EC50(active form)) (human TLR7): 1378.9
Compound: CCC[S@](=N)(=O)c1nc(N)c2c(n1)n(Cc1ccc(C)cc1)c(=O)n2C(=O)N(C)CCOC [Example 38-A, 6-Amino-N-(2-methoxyethyl)-N-methyl-8-oxo-2-[S(S)-propylsulfonimidoyl]-9-(p-tolylmethyl)purine-7-carboxamide]
